Series [1] deals with ILM, the epiretinal membrane. Nature of the series: ILM / epiretinal membrane peeling with indocyanine green staining in human patients. Type of series: in vivo. The note with it: human patients having macular holes, epiretinal membranes, or both. From the text: The procedures of Example are followed using human patients having macular holes, epiretinal membrances, or both.

Series [2] relates to retinal ILM.
Procedure: Human cadaveric eyes are examined in the laboratory to determine if the ICG solution stains the retinal ILM. The entire anterior segment of the eye is excised to gain access to the vitreous cavity. […] The dye is left in place on the macula for 5 minutes. […] A bent 22 g needle is used to create the initial ILM tear. Intraocular foreign body forceps are then used to grasp the elevated ILM edge. The ILM is peeled in a continuous, circular manner similar to a capsulorhexis in cataract surgery. In each case, the ILM peel removes 3 to 4 disc diameters of ILM centered approximately on the fovea. Peeled ILM and cadaver eyes are fixed in 10% buffered formalin for histopathologic preparation. Specimens are evaluated by light microscopy.
The peeled ILM and sectioned globes are submitted for histopathologic evaluation and electron microscopy. Periodic acid-Schiff (PAS) stain is used to identify the ILM.
Series [3] is described as follows: Contrast characteristics of indocyanine green colorant after exposure. The class given is physicochemical. Particulars: exposed to air, room temperature and lighted atmospheric conditions; at least 8 hours up to one month after exposure, or longer.
For series [4] the following is noted: upon mixing; as marketed; cited from earlier work.

Data on 1 compound can be found in patent US20060235068A1, “OPHTHALMOLOGICAL SURGERY COLORANT AND DELIVERY SYSTEM” (priority 2000, published 2006).

Structures are written as SMILES.

In the case of `CC1(C)C(/C=C/C=C/C=C/C=C2\N(CCCCS(=O)(=O)O)c3ccc4ccccc4c3C2(C)C)=[N+](CCCCS(=O)(=O)[O-])c2ccc3ccccc3c21` [indocyanine green], the “peeling of the ILM, the epiretinal membrane or both” value in series [1] was “Successful peeling”. Moreover, the “staining of the underlying retina” value in series [2] (after the ICG is removed, needle penetrated through the ILM) was “unstained underlying retina”. Also, the “staining of the underlying ILM when posterior hyaloid remains attached” value in series [2] (compared with globes in which the posterior cortical vitreous was removed prior to ICG injection) is listed as “less staining of the underlying ILM”. Further, the “effect of staining on ILM peeling” value in series [2] (contrast between stained ILM and unstained retina) is “facilitates the continuation of ILM peeling”. In addition, the “contrast characteristics after exposure” value in series [3] was “satisfactory contrast characteristics”. In series [4], the fluorescence stability entry was “about 10 hours”.
